Values quoted from earlier work as cited in patent US20220265635A1, “TREATMENT OF NEUROLOGICAL DISEASE” (Aclipse One Inc., priority 2018, published 2022).

System: dopamine receptors
Conditions: background description; cited from earlier work

CN1CCc2cccc3c2[C@H]1Cc1ccc(O)c(O)c1-3 [(6aR)-6-methyl-5,6,6a,7-tetrahydro-4H-dibenzo[de,g]quinoline-10,11-diol, reference compound]
activity on dopamine receptors (in words): strong dopamine agonist
